Source: US10966954B2, “Electrophilically enhanced phenolic compounds for treating inflammatory related diseases and disorders” (priority 2016, dated 2021)
pEC50: −log10 of the molar value.

Experiments:
Assay in all cases: microbe, parasite or virus in culture
Type in all cases: cell-based
A/Perth/265/09 (H1N1) = settings: Influenza A virus, H1N1, MDCK, 168 h
A/HK/1/68 (H3N2) = settings: Influenza A virus, H3N2, MDCK, 168 h
A/TX/36/91 (H1N1) = settings: Influenza A virus, H1N1, MDCK, 168 h

CC(=O)N[C@H]1[C@H]([C@H](O)[C@H](O)CO)OC(C(=O)O)=C[C@@H]1N=C(N)N [Zanamivir]
pEC50 (A/Perth/265/09 (H1N1)): 5.82
pEC50 (A/HK/1/68 (H3N2)): 4.56
pEC50 (A/TX/36/91 (H1N1)): 6.14
